In ChEMBL document CHEMBL1165871, “Synthesis of some 5-phenylisoxazole-3-carboxylic acid derivatives as potent xanthine oxidase inhibitors” (Eur J Med Chem, 2010):

These molecules were tested against T1, Xanthine dehydrogenase/oxidase (Bos taurus, UniProt P80457) (assay: Inhibition of bovine xanthine oxidase by spectrophotometry). Conditions: not given.
T1 sequence (P80457 whole entry): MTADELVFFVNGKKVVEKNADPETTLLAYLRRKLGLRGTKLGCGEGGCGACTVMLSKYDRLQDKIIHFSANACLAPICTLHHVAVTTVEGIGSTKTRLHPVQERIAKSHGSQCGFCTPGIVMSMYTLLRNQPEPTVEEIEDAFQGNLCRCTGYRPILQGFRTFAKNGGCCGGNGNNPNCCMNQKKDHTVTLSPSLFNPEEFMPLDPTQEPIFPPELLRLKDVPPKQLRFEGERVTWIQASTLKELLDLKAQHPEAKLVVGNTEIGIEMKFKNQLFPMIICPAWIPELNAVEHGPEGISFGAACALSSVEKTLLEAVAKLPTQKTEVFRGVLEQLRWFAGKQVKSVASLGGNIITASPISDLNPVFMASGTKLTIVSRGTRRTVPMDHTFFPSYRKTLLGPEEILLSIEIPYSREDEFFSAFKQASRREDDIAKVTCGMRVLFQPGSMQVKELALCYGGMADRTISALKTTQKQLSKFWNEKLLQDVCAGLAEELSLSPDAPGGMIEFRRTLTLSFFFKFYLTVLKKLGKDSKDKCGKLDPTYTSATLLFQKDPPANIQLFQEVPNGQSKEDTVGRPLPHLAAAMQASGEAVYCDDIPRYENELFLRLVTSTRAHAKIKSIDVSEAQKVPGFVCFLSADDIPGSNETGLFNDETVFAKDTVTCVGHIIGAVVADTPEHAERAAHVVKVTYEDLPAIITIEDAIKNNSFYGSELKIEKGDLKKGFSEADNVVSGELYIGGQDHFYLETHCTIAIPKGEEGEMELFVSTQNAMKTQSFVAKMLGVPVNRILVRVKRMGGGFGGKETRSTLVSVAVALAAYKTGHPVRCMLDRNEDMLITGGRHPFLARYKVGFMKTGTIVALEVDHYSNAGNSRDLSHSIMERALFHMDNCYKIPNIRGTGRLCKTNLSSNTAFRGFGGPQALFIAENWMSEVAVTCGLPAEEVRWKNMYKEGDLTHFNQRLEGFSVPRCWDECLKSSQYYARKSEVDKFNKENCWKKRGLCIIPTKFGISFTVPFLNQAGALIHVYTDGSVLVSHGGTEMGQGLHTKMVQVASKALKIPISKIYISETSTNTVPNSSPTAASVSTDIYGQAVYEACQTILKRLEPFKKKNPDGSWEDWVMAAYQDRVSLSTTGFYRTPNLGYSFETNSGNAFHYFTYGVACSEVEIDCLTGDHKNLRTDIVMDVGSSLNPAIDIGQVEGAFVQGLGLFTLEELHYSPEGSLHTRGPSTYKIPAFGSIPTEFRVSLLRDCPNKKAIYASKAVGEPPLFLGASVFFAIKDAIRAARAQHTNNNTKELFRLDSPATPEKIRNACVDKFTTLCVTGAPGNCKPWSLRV

SMILES	IC50
CC(C)(C)c1ccc(COc2ccc(-c3cc(C(=O)O)[n-][o+]3)cc2[N+](=O)[O-])cc1	12800 nM
N#Cc1cc(-c2cc(C(=O)O)no2)ccc1OCc1ccccc1	590 nM
CC(C)(C)c1ccc(COc2ccc(-c3cc(C(=O)O)no3)cc2C#N)cc1	1010 nM
O=C(O)c1cc(-c2ccc(OCc3ccc(Cl)cc3)c([N+](=O)[O-])c2)on1	2830 nM
CC(C)COc1ccc(-c2cc(C(=O)O)no2)cc1[N+](=O)[O-]	1000 nM
O=C(O)c1cc(-c2ccc(OCc3ccccc3)c([N+](=O)[O-])c2)on1	970 nM
N#Cc1cc(-c2cc(C(=O)O)no2)ccc1OCc1ccc(Cl)cc1	630 nM

Each molecule was assayed against T1, Xanthine dehydrogenase/oxidase (assay: Inhibition of bovine xanthine oxidase at 10 ug/ml by spectrophotometry). Conditions: cattle.

SMILES	inhibition at 10 µg/mL
Cc1ccc(COc2ccc(-c3cc(C(=O)O)no3)cc2[N+](=O)[O-])cc1	< 50%
Cc1ccc(COc2ccc(-c3cc(C(=O)O)no3)cc2C#N)cc1	< 50%
